These results are taken from ChEMBL document CHEMBL2321833, “Design and optimization of selective protein kinase C θ (PKCθ) inhibitors for the treatment of autoimmune diseases” (J Med Chem, 2013).

Molecules are shown by their SMILES.

For series [1], the target named is Protein kinase C alpha type (Homo sapiens, UniProt P17252). The series can be described thus: Inhibition of PKC alpha (unknown origin) using RRRRRKGSFKRKA as substrate after 15 mins by spectrophotometry in presence of ATP.
In series [2] the target is T1, Protein kinase C theta type (Homo sapiens, UniProt Q04759). Kind of series: Inhibition of full-length recombinant PKC theta (unknown origin) using ERMRPRKRQGSVRRRV as substrate after 60 mins by scintillation counting analysis in presence of [gamma-33P]ATP.
Series [3] addresses Protein kinase C delta type (Homo sapiens, UniProt Q05655). Kind of series: Inhibition of PKC delta (unknown origin) using ERMRPRKRQGSVRRRV as substrate after 15 mins by spectrophotometry in presence of ATP.
Series [4] has as its target T1, Protein kinase C theta type. The series can be described thus: Inhibition of PKC-theta in human PBMC cells assessed as inhibition of IL-2 after 24 hrs by bead-based FLISA assay. In kind it is cell-based.
Series [5] in a line: Oral bioavailability in rat at 10 mg/kg. In kind it is ADME, organism-based. As to conditions: in vivo.
Series [6] is described as follows: Clearance in rat at 3 mg/kg, iv and 10 mg/kg, po. In kind it is ADME, organism-based. As to conditions: in vivo.
Series [7] relates to Blood. Kind of series: Inhibition of PKC theta in human whole blood assessed as IL-2 level after 1 hr by ELISA. In kind it is functional, tissue-based.
A short description of series [8]: Half life in rat at 3 mg/kg, iv and 10 mg/kg, po. In kind it is ADME, organism-based. As to conditions: in vivo.

T1 sequence (Q04759 whole entry): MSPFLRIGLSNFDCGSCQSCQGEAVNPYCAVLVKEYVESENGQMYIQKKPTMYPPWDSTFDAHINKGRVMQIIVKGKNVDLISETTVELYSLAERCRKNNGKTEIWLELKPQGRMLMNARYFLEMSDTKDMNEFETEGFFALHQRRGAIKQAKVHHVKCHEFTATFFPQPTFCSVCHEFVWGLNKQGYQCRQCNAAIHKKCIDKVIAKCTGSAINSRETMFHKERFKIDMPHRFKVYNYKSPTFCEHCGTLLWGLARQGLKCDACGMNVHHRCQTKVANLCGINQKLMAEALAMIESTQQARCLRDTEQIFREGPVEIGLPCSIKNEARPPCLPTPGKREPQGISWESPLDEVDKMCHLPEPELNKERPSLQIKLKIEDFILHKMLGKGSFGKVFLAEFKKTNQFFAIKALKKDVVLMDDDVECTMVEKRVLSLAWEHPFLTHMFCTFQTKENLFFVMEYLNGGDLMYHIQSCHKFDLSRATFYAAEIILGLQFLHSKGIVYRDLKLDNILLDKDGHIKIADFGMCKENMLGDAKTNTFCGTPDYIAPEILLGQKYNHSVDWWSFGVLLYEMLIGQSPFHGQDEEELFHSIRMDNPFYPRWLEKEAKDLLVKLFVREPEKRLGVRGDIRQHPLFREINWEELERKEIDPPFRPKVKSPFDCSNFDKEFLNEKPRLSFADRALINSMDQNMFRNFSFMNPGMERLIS
Protein kinase C delta type, sequence (Q05655 whole entry): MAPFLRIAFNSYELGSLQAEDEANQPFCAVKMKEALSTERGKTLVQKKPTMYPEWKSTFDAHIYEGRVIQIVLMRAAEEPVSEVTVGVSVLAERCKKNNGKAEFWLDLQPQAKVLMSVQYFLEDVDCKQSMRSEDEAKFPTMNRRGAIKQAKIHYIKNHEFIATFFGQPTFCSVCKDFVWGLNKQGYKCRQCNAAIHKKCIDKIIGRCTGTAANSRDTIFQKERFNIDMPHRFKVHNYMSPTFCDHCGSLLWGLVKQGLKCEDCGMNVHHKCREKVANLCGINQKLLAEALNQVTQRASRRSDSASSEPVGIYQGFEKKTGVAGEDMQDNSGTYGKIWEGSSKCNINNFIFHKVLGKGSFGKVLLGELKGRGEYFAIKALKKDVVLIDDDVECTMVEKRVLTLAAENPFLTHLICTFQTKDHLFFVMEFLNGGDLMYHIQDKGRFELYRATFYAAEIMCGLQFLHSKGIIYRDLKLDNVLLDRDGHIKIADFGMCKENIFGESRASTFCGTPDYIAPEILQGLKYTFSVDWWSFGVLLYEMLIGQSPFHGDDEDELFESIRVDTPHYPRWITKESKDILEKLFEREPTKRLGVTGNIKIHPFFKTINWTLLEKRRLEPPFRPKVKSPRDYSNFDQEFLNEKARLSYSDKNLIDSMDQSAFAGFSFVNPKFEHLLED

As for `Nc1ncccc1C(=O)c1cccc(N2CCCNCC2)n1`, the Ki in series [1] amounted to 428 nM.
For the molecule `CC(C)[C@@](C)(O)[C@@H]1CN(c2nc(-c3n[nH]c4ncccc34)c(F)cc2O)CCN1`, the inhibition constant (Ki) in series [1] was 56 nM; in series [2] it was 0.1 nM; in series [3], below 10 nM. Besides, the concentration for half-maximal inhibition (IC50) in series [4] is 4 nM.
As to `CC(C)[C@@](C)(O)[C@@H]1CN(c2nc(-c3n[nH]c4ncccc34)c(F)cc2C#N)CCN1`, in series [1], the Ki is above 1250 nM.
As for `CC(C)[C@@](C)(O)[C@@H]1CN(c2nc(-c3n[nH]c4ncccc34)c(F)cc2CO)CCN1`, the values for the Ki in series [1], in series [2] and in series [3] were 205 nM, 0.1 nM and below 10 nM, respectively. Moreover, in series [4], the IC50 was 1 nM.
As to `CC(C)[C@@](C)(O)[C@@H]1CN(c2nc(-c3n[nH]c4ncccc34)c(F)cc2F)CCN1`, the Ki is 198 nM in series [1], 0.1 nM in series [2] and 18 nM in series [3]. Moreover, the bioavailability in series [5] stood at 30%. Also, in series [6], the clearance worked out at 9.5 mL/min/kg. The half-inhibitory concentration (IC50) in series [7] was found to be 80 nM; in series [4], 2 nM. This molecule also had a half-life in series [8] of 1.7 h.
As to `CC(C)C[C@H]1CN(c2ccc(F)c(-c3n[nH]c4ncccc34)n2)CCN1`, the Ki in series [3] is 358 nM.
For the molecule `CC(C)C[C@H]1CN(c2ccc(F)c(-c3n[nH]c4ncccc34)n2)C[C@@H](C)N1`, the Ki in series [2] stood at 5 nM; in series [3], 130 nM.
As to `CC(C)C[C@H]1CN(c2ccc(F)c(-c3n[nH]c4ncccc34)n2)C[C@H](C)N1`, the Ki is above 700 nM in series [2] and above 1250 nM in series [3].
Turning to `CC(C)[C@@](C)(O)[C@@H]1CN(c2ccc(F)c(-c3n[nH]c4ncccc34)n2)CCN1`, the inhibitory constant (Ki) in series [1] was determined as 549 nM; in series [3], 57 nM. The molecule further registered a bioavailability in series [5] of 36%. The molecule further had a clearance in series [6] of 39 mL/min/kg. Further, in series [7], the 50% inhibitory concentration (IC50) was 200 nM. Also, in series [8], the half-life is 2.6 h.
For the molecule `CC(C)[C@](C)(O)[C@H]1CN(c2ccc(F)c(-c3n[nH]c4ncccc34)n2)CCN1`, the Ki in series [3] was above 1250 nM.
As to `CC(C)[C@](C)(O)[C@@H]1CN(c2ccc(F)c(-c3n[nH]c4ncccc34)n2)CCN1`, the inhibitory constant (Ki) in series [3] was 120 nM.
For the molecule `CC(C)[C@@](C)(O)[C@H]1CN(c2ccc(F)c(-c3n[nH]c4ncccc34)n2)CCN1`, the Ki in series [3] was above 1250 nM.
For the molecule `CC(C)[C@@](C)(O)[C@@H]1CN(c2ccc(Cl)c(-c3n[nH]c4ncccc34)n2)CCN1`, the inhibition constant Ki was 1240 nM in series [1], 21 nM in series [2] and 547 nM in series [3]. Moreover, the half-inhibitory concentration (IC50) in series [4] was determined as 170 nM.
For the molecule `c1cc(-c2n[nH]c3ncccc23)nc(N2CCNCC2)c1`, in series [1], the Ki came to 1230 nM.
Regarding `Fc1ccc(N2CCNCC2)nc1-c1n[nH]c2ncccc12`, the figures for the inhibition constant (Ki) in series [1], in series [2] and in series [3] were above 1250 nM, 60 nM and 722 nM, respectively.
On to `CC(C)C[C@@H]1CN(c2ccc(F)c(-c3n[nH]c4ncccc34)n2)CCN1`, for which, in series [3], the inhibition constant Ki stood at 792 nM.
As to `CC(C)[C@@](C)(O)[C@@H]1CN(c2ccc(C(F)(F)F)c(-c3n[nH]c4ncccc34)n2)CCN1` (racemic), the figures for the Ki in series [1], in series [2] and in series [3] were above 1250 nM, 20 nM and 957 nM, respectively. In addition, in series [4], the IC50 is 420 nM.
